From US9290737B2, “Method for enucleating nucleated erythrocyte, and enucleation inducer” (Kanazawa Medical University, priority 2009, dated 2016)
Where no end group is shown, it is not given here.

Assays:
Assay type in all cases: cell-based
[1] = test system: nucleated erythrocytes derived from a fetal rat; test: Enucleation rate of nucleated erythrocytes derived from fetal rat (DAPI staining, fluorescence microscope count); settings: vs control without peptide
Experimental: Experimental rats were bred, and peripheral blood was collected from 12 fetuses aged 13 days post coitum.
The collected peripheral blood was centrifuged at 1,000×g for 5 minutes at room temperature (centrifuge: Hitachi/05PR-22). Then, serum was removed, and blood cells were suspended in 10 ml of culture medium (supplemented with 10% FBS (Sigma/CR1211)/RPMI-1640 Medium (c) (Sigma/R8578)/1% penicillin-streptomycin (Sigma/P4333)) in a clean bench. This suspension was centrifuged again, a supernatant was removed, and the cells were resuspended in the culture medium. This manipulation was repeated twice, and finally the cells were suspended in 10 ml of the culture medium to prepare a sample for culturing peripheral blood.
A blood cell (cell) density was counted using about 10 μl of this sample and a hemocytometer (Burker-Turk Deep 1/10 mm/Erma Tokyo/7787), and the sample was diluted based on the counted value to adjust to 2×10^6 cells/ml.
(§1) This sample was diluted to a cell density of 1×10^6 cells/ml with the culture medium, to which ACTH1-24 (SEQ ID NO: 2, manufactured by Sigma) was added at a final concentration of 1 μM or 5 μM to use as a subject culture medium. The sample to which no ACTH1-24 was added was used as a control.
1 ml each of the various subject culture media was dispensed into a 4-well chamber slide glass (Chamber Slide™ System/Lab Tek (registered trademark)/177380), and cultured for a predetermined period of time in an incubator (Sakura CO2 gas Incubator/Sakura/IC-160) under the condition at 37° C. at 5% CO2.
At 0, 3, and 6 hours of the culture, the cells in each subject culture medium were fixed with glutaraldehyde (25% glutaraldehyde solution/Wako Pure Chemical Industries Ltd./073-00536) at a final concentration of 2%. DAPI (1 mg/ml of DAPI solution/DOJINDO/340-07971) for staining nuclei was dripped to the culture medium at a final volume ratio of 1/20,000, which was then shaken for 5 minutes, subsequently excited by a UV source using a fluorescence microscope (OLYMPUS IX70), and 10 fixed points were photographed. Then, the number of cells in the photograph was counted.
The enucleation rate was calculated as follows. Enucleation rate (%)={Enucleated erythrocyte count/Total cell count (Nucleated cell (including nucleated erythrocytes and mesenchymal stem cells) count+Enucleated erythrocyte count)} […]
as §1, with “CLIP” for “ACTH1-24”, “11, manufactured by Sigma) or α-MSH (SEQ ID NO: 3,” for “2,”, “neither CLIP nor α-MSH” for “no ACTH1-24”
250 μl each of the various subject culture media were dispensed in an 8-well chamber slide glass (Chamber Slide™ System/Lab TekR/177402), and cultured for a predetermined period of time in an incubator under the condition at 37° C. at 5% CO2. At 3, 6, and 9 (only for the 5-μM addition samples) hours of the culture, each subject culture medium was sampled, and the culture medium was fixed with glutaraldehyde at a final concentration of 2%. DAPI for staining nuclei was dripped to the culture medium, which was then shaken for 5 minutes, subsequently microscopically observed using a fluorescence microscope, and 10 field images were randomly determined and photographed. The number of cells in each of the photographs was counted, and the mean value thereof was calculated. The enucleation rate was calculated in the same way as in Example 1.

[2] = test system: nucleated erythrocytes derived from human cord blood; test: Enucleation rate of nucleated erythrocytes derived from human cord blood CD34-positive cells (DAPI staining and flow cytometry); settings: 5.0 μM added on Day 4 in phase II, measured on Day 9; DAPI staining (FIG. 7) and flow cytometry (FIG. 8)
Experimental: CD34-positive hematopoietic stem cells derived from a human (derived from the cord blood, 90% or more CD34-positive, product from Lonza:
http://catalog.takara-bio.co.jp/product/basic_info.asp?unitid=U10 0004262) were cultured in HPGM medium. The cells at a density of 2×10^4 to 2×10^5 cells/ml were cultured with 25 ng/ml of SCF, 50 ng/ml of thrombopoietin, and 50 ng/ml of Flt-3 ligand for first 7 days, and this was used as a phase I.
Next, the cells at a density of 2×10^5 cells/ml were cultured with 3 U/ml of EPO, 25 ng/ml of SCF, 10 ng/ml of IL-3, and 10 ng/ml of IL-6, and this was used as a phase II. The cells were cultured with the addition of ACTH1-24, ACTH1-39, CLIP, or α-MSH at a concentration of 5.0 μM, or ACTH1-24 at a concentration of 0.5 μM on Day 4 in the phase II.
The erythrocytes in the above-mentioned phase II cultured with ACTH1-24, ACTH1-39, CLIP, or α-MSH on Day 9 were fixed with 10% formalin, and stained with 4′,6-diamidino-2-phenylindole (DAPI). Ten photographs were randomly taken under a fluorescence microscope, and the numbers of nucleated and enucleated erythrocytes were visually counted. The measurement was carried out in the blinded manner. The enucleation rate was calculated in the same manner as in Example 1.
(§2) Double staining for glycophorin A (Gly A) and the nucleus (propidium iodide, PI) was given to blood cells in the phase II cultured with ACTH1-24, CLIP, or α-MSH on Day 9 in the same manner as in the foregoing. The cells were analyzed using a flow cytometry (automatic cell analysis sorting apparatus, FACS Calibur/Becton Dickinson). Gly A-positive/PI-negative cells (corresponding to the left upper fraction of four dot plot fractions divided by data from flow cytometry in FIG. 9B) were determined as enucleated cells, and the enucleation rate of these enucleated cells relative to the total cells was calculated.

[3] = test system: cells differentiating into erythrocytes derived from human cord blood; test: Enucleation efficiency of cells derived from human cord blood (flow cytometry, Gly A/PI); settings: 0.5 μM, culture as in Example 4, flow cytometry (FIG. 9A)
Experimental: as §2
ACTH1-24 at a concentration of 0.5 μM was added to the culture carried out in the same manner as in Example 4, and the enucleation rate was measured by flow cytometry.
Gly A is a surface marker of erythroblasts, reticulocytes, and mature erythrocytes. Thus, this method was cited as a method of measuring the percentage of “enucleated erythrocytes”/“cells differentiating into erythrocytes” in a population of blood cells including immature erythrocytes (see Peng J. et al., Nat. Cell Biol., 10: 314-321, 2008).

[4] = final concentration 5 μM, 3 hours of culture
[5] = final concentration 1 μM, after 6 hours of culture

Substance: SYSMEHFRWGKPVGKKRRPVKVYPNVAENESAEAFPLEF [ACTH1-39, adrenocorticotropic hormone, manufactured by Sigma]
- induction of enucleation (enucleation rate) [1, 4]: higher than that in the control
- induction of enucleation (enucleation rate) [2]: able to be induced

Substance: Ser-Tyr-Ser-Met-Glu-His-Phe-Arg-Trp-Gly-Lys-Pro-Val-Gly-Lys-Lys-Arg-Arg-Pro-Val-Lys-Val-Tyr-Pro (SYSMEHFRWGKPVGKKRRPVKVYP; ACTH1-24)
- induction of enucleation (enucleation rate) [1, 5]: able to be induced
- induction of enucleation (enucleation rate) ([1]; final concentration 5 μM, after 6 hours of culture): able to be induced
- induction of enucleation (enucleation rate) [2]: able to be induced
- percentage of enucleated erythrocytes in cells differentiating into erythrocytes [3]: about 70%

Substance: RPVKVYPNGAEDESAEAFPLEF [CLIP, Corticotropin-Like Intermediate Lobe Peptide, manufactured by Sigma]
- induction of enucleation (enucleation rate) [1, 5]: able to be induced
- induction of enucleation (enucleation rate) [1, 4]: able to be induced
- induction of enucleation (enucleation rate) [2]: able to be induced

Substance: Acetyl-(N)-Ser-Tyr-Ser-Met-Glu-His-Phe-Arg-Trp-Gly-Lys-Pro-Val-NH2 (Ac-SYSMEHFRWGKPV-NH2) [α-MSH, melanocyte-stimulating hormone peptide containing an acetyl group, manufactured by Sigma]
- induction of enucleation (enucleation rate) [1, 5]: able to be induced
- induction of enucleation (enucleation rate) [1, 4]: able to be induced
- induction of enucleation (enucleation rate) [2]: able to be induced
